Test results published in patent publication US20150105252A1, “SUBSTITUTED PYRAZOLES AS HERBICIDES” (E I DU PONT DE NEMOURS AND COMPANY, priority 2013, published 2015).

Columns and labels:
[1] = system: crabgrass, large; assay: Test C preemergence; type: in vivo, Digitaria sanguinalis; settings: for Plant response rating (scale of 0 to 100), Crabgrass, Large: Preemergence, 250 g ai/ha; for Crabgrass, Large plant response rating: preemergence
How it was run: (§1)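 Greenhouse pot test: preemergence application onto freshly seeded loam/sand mix, postemergence application onto seedlings (1–4 leaves, 2–18 cm) in peat-vermiculite substrate. Responses scored visually 13 to 15 days later relative to controls, where 0 means no effect and 100 means complete control; a dash indicates no result.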

[2] = system: nutsedge, yellow; assay: Test C preemergence; type: in vivo, Cyperus esculentus; settings: for Plant response rating (scale of 0 to 100), Nutsedge, Yellow: Preemergence, 250 g ai/ha; for Nutsedge, Yellow plant response rating: preemergence
How it was run: as §1

[3] = system: oilseed rape; assay: Test C preemergence; type: in vivo, Brassica napus; settings: for Plant response rating (scale of 0 to 100), Oilseed Rape: Preemergence, 250 g ai/ha; for Oilseed Rape plant response rating: preemergence
How it was run: as §1

[4] = system: morningglory; assay: Test C preemergence; type: in vivo, Ipomoea coccinea; settings: for Plant response rating (scale of 0 to 100), Morningglory: Preemergence, 250 g ai/ha; for Morningglory plant response rating: preemergence
How it was run: as §1

[5] = system: barnyardgrass; assay: Test C preemergence; type: in vivo, Echinochloa crus-galli; settings: for Plant response rating (scale of 0 to 100), Barnyardgrass: Preemergence, 250 g ai/ha; for Barnyardgrass plant response rating: preemergence
How it was run: as §1

[6] = system: ducksalad; assay: Test B flood; type: in vivo, Heteranthera limosa; settings: 250 g ai/ha, visual rating on 0 to 100 scale (0 no effect, 100 complete control), 13 to 15 days
How it was run: (§2)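 Plants were grown to the 2-leaf stage, then pots were flooded to 3 cm above the soil and compounds were applied directly into the paddy water. Water depth was held for the whole test; after 13 to 15 days in a greenhouse, injury was visually rated against untreated controls (0 = no effect, 100 = complete control).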

[7] = system: morningglory; assay: Test A postemergence; type: in vivo, Ipomoea spp.
How it was run: (§3)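 Both timings tested concurrently in loam/sand soil: preemergence by directed soil spray, postemergence on plants of 2–10 cm at the one- to two-leaf stage. Greenhouse holding period was approximately 10 days before visual injury assessment (0–100, 0 = no effect).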

[8] = system: nutsedge, yellow; assay: Test C postemergence; type: in vivo, Cyperus esculentus; settings: for Plant response rating (scale of 0 to 100 where 0 is no effect and 100 is complete control), Nutsedge, Yellow: Postemergence, 31 g ai/ha, visually evaluated after 13 to 15 days; for Nutsedge, Yellow plant response rating / Plant response rating, Nutsedge, Yellow: postemergence; for Nutsedge, Yellow plant response rating: 62 g ai/ha, scale 0 to 100
How it was run: as §1

[9] = system: crabgrass, large; assay: Test A preemergence; type: in vivo, Digitaria sanguinalis; settings: preemergence
How it was run: as §3

[10] = system: barnyardgrass; assay: Test A postemergence; type: in vivo, Echinochloa crus-galli
How it was run: as §3

[11] = system: chickweed; assay: Test C postemergence; type: in vivo, Stellaria media; settings: for Plant response rating (scale of 0 to 100 where 0 is no effect and 100 is complete control), Chickweed: Postemergence, 31 g ai/ha, visually evaluated after 13 to 15 days; for Chickweed plant response rating / Plant response rating, Chickweed: postemergence; for Chickweed plant response rating: 62 g ai/ha, scale 0 to 100
How it was run: as §1

[12] = system: velvetleaf; assay: Test C preemergence; type: in vivo, Abutilon theophrasti; settings: for Plant response rating (scale of 0 to 100), Velvetleaf: Preemergence, 250 g ai/ha; for Velvetleaf plant response rating: preemergence
How it was run: as §1

[13] = system: rice; assay: Test B flood; type: in vivo, Oryza sativa; settings: 250 g ai/ha, visual rating on 0 to 100 scale (0 no effect, 100 complete control), 13 to 15 days
How it was run: as §2

[14] = 31 g ai/ha, visual rating, scale 0 to 100 (0 no effect, 100 complete control), 13 to 15 days
[15] = 62 g ai/ha, scale 0 to 100 (0 no effect, 100 complete control), 13 to 15 days
[16] = 125 g ai/ha, scale 0 to 100, 0 is no effect, 100 is complete control
[17] = 31 g ai/ha, scale 0 to 100 (0 no effect, 100 complete control), 13 to 15 days
[18] = Postemergence, 500 g ai/ha, visual rating after approx. 10 days, 0 to 100 scale (0 no effect, 100 complete control)
[19] = postemergence, 125 g ai/ha, about 10 days, visual rating on 0 to 100 scale (0 no effect, 100 complete control)
[20] = 250 g ai/ha, scale 0 to 100 (0 no effect, 100 complete control)
[21] = 125 g ai/ha, scale 0 to 100, 0 no effect, 100 complete control
[22] = 125 g ai/ha, visual injury, 0 to 100 scale, approx. 10 days
[23] = 500 g ai/ha, visual injury after approx. 10 days, 0 to 100 scale (0 no effect, 100 complete control)

Structure (SMILES) | Plant response rating (scale of 0 to 100), Crabgrass, Large [1] | Crabgrass, Large plant response rating [1, 14] | Crabgrass, Large plant response rating [1, 15] | Crabgrass, Large plant response rating [1, 16] | Plant response rating (scale of 0 to 100), Nutsedge, Yellow [2] | Nutsedge, Yellow plant response rating [2, 14] | Nutsedge, Yellow plant response rating [2, 15] | Plant response rating (scale of 0 to 100), Oilseed Rape [3] | Oilseed Rape plant response rating [3, 14] | Oilseed Rape plant response rating [3, 15] | Oilseed Rape plant response rating [3, 16] | Plant response rating (scale of 0 to 100), Morningglory [4] | Morningglory plant response rating [4, 14] | Morningglory plant response rating [4, 15] | Morningglory plant response rating [4, 16] | Plant response rating (scale of 0 to 100), Barnyardgrass [5] | Barnyardgrass plant response rating [5, 17] | Barnyardgrass plant response rating [5, 15] | Barnyardgrass plant response rating [5, 16] | Plant response rating, Ducksalad [6] | also measured
CCc1cc(C(=O)NCC(F)(F)F)nn1Cc1nc(C(F)(F)F)nn1C [Compound 107] | 98 | 98 | 98 | 98 | 100 | 15 | 60 | 100 | 98 | 100 | 100 | 100 | 90 | 100 | 100 | 100 | 40 | 100 | 100 | 70 | Nutsedge, Yellow plant response rating [2, 16]: 85; Morningglory plant response rating [7, 18]: 100; Morningglory plant response rating [7, 19]: 90; Plant response rating (scale of 0 to 100 where 0 is no effect and 100 is complete control), Nutsedge, Yellow [8]: 0; Nutsedge, Yellow plant response rating [8]: 0; Plant response rating, Nutsedge, Yellow [8, 20]: 40; Plant response rating, Nutsedge, Yellow [8, 21]: 5; Crabgrass, Large plant response rating [9, 22]: 100; Crabgrass, Large plant response rating [9, 23]: 100; Barnyardgrass plant response rating [10, 18]: 90; Barnyardgrass plant response rating [10, 19]: 80; Plant response rating (scale of 0 to 100 where 0 is no effect and 100 is complete control), Chickweed [11]: 100; Chickweed plant response rating [11]: 100; Plant response rating, Chickweed [11, 20]: 100; Plant response rating, Chickweed [11, 21]: 100; Plant response rating (scale of 0 to 100), Velvetleaf [12]: 100; Velvetleaf plant response rating [12, 14]: 60; Velvetleaf plant response rating [12, 15]: 85; Velvetleaf plant response rating [12, 16]: 100; Plant response rating, Rice [13]: 30
CCc1cc(C(=O)NCC(F)(F)F)nn1Cc1cc(C(F)(F)F)nn1C [Compound 108, 5-ethyl-1-[[1-methyl-3-(trifluoromethyl)-1H-pyrazole-5-yl]methyl]-N-(2,2,2-trifluoroethyl)-1H-pyrazole-3-carboxamide] | 100 | 100 | 100 | 100 | 85 | 5 | 40 | 100 | 90 | 98 | 100 | 100 | 98 | 100 | 100 | 100 | 50 | 100 | 100 | 60 | Morningglory plant response rating [7, 18]: 100; Morningglory plant response rating [7, 19]: 90; Plant response rating (scale of 0 to 100 where 0 is no effect and 100 is complete control), Nutsedge, Yellow [8]: 0; Nutsedge, Yellow plant response rating [8]: 0; Plant response rating, Nutsedge, Yellow [8, 20]: 25; Plant response rating, Nutsedge, Yellow [8, 21]: 0; Crabgrass, Large plant response rating [9, 22]: 100; Crabgrass, Large plant response rating [9, 23]: 100; Barnyardgrass plant response rating [10, 18]: 90; Barnyardgrass plant response rating [10, 19]: 90; Plant response rating (scale of 0 to 100 where 0 is no effect and 100 is complete control), Chickweed [11]: 85; Chickweed plant response rating [11]: 100; Plant response rating, Chickweed [11, 20]: 100; Plant response rating, Chickweed [11, 21]: 100; Plant response rating (scale of 0 to 100), Velvetleaf [12]: 100; Velvetleaf plant response rating [12, 14]: 55; Velvetleaf plant response rating [12, 15]: 100; Velvetleaf plant response rating [12, 16]: 100; Plant response rating, Rice [13]: 15
